What was measured:
Assay in all cases: relative viability (nuclei count vs DMSO), 5 days (fraction); higher = more cells survive
Vandetanib + Tozasertib = compound: COc1cc2/c(=N/c3ccc(Br)cc3F)nc[nH]c2cc1OCC1CCN(C)CC1 [Vandetanib] + Cc1cc(Nc2cc(N3CCN(C)CC3)nc(Sc3ccc(NC(=O)C4CC4)cc3)n2)n[nH]1 [Tozasertib] (partner 0.1 µM)
Outline: (§1)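 Lung cancer cell lines in 1536-well plates got either a single drug or a fixed anchor-drug dose together with five library-drug doses (not always all listed) in √10 steps, by pin tool, on the day after seeding. Nuclei were counted after 5 days, and relative viability is the treated-to-vehicle ratio of nuclei counts. Values are medians of duplicate plates.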

[1] = compound: C1=CC=C2C(=C1)N=C(S2)C(C#N)C3=NC(=NC=C3)NCCC4=CN=CC=C4 + C[C@]1(O)C[C@@H](c2nc(-c3ccc4ccc(-c5ccccc5)nc4c3)c3c(N)nccn32)C1 [Linsitinib] (partner 1 µM)
Outline: as §1

NVP-TAE684 + Crizotinib = compound: COc1cc(N2CCC(N3CCN(C)CC3)CC2)ccc1Nc1ncc(Cl)c(Nc2ccccc2S(=O)(=O)C(C)C)n1 [NVP-TAE684] + C[C@@H](Oc1cc(-c2cnn(C3CCNCC3)c2)cnc1N)c1c(Cl)ccc(F)c1Cl [Crizotinib] (partner 1 µM)
Outline: as §1

CUDC-101 + Navitoclax = compound: C#Cc1cccc(Nc2ncnc3cc(OC)c(OCCCCCCC(=O)NO)cc23)c1 [CUDC-101] + CC1(C)CCC(c2ccc(Cl)cc2)=C(CN2CCN(c3ccc(C(=O)NS(=O)(=O)c4ccc(N[C@H](CCN5CCOCC5)CSc5ccccc5)c(S(=O)(=O)C(F)(F)F)c4)cc3)CC2)C1 [Navitoclax] (partner 0.5 µM)
Outline: as §1

Cell Line	relative viability (Vandetanib + Tozasertib; first compound 0.02 µM)	relative viability (Vandetanib + Tozasertib; first compound 0.06325 µM)	relative viability (Vandetanib + Tozasertib; first compound 0.2 µM)	relative viability (Vandetanib + Tozasertib; first compound 0.6325 µM)	relative viability (Vandetanib + Tozasertib; first compound 2 µM)	relative viability ([1]; first compound 0.005 µM)	relative viability ([1]; first compound 0.01581 µM)	relative viability ([1]; first compound 0.05 µM)	relative viability ([1]; first compound 0.1581 µM)	relative viability ([1]; first compound 0.5 µM)	relative viability (NVP-TAE684 + Crizotinib; first compound 0.2 µM)	relative viability (NVP-TAE684 + Crizotinib; first compound 0.6325 µM)	relative viability (NVP-TAE684 + Crizotinib; first compound 2 µM)	relative viability (CUDC-101 + Navitoclax; first compound 0.01 µM)	relative viability (CUDC-101 + Navitoclax; first compound 0.03162 µM)	relative viability (CUDC-101 + Navitoclax; first compound 0.1 µM)	relative viability (CUDC-101 + Navitoclax; first compound 0.3162 µM)	relative viability (CUDC-101 + Navitoclax; first compound 1 µM)
NCI-H358	0.111	0.106	0.104	0.0913	0.102	0.533	0.739	0.654	0.722	0.654	0.441	0.347	0.081					
NCI-H522	0.588	0.57	0.593	0.621	0.597													
NCI-H650	0.732	0.69		0.809	0.723	0.838	0.578	0.803	1.26	0.984	0.799	0.516	0.399					
NCI-H661	0.345	0.345	0.315	0.364	0.368	0.509	0.667	0.545	0.516	0.592	1.03	1.02	1.05					
NCI-H1299						0.92	0.99	0.744	1.07	0.912	1.01	0.959	0.623	1.05	0.992	1.12	1.06	1.02
NCI-H1395	0.752	0.753	0.845	0.837	0.723	1.07		0.978	1.07	1.29				1.26	1.13	1.46	1.75	0.991
NCI-H1563						1.27	1.32	1.16	1.2	1.18	0.771	0.79	0.651					
NCI-H1623	0.431	0.4	0.388	0.41	0.445													
NCI-H1648	0.515	0.492	0.569	0.657	0.318													
NCI-H1650	0.354	0.24	0.146	0.378	0.374						0.899	0.89	1	1.22	0.967	1.28	1.1	0.85
NCI-H1703						0.547	0.711		0.718	0.676	0.743	0.516	0.144	0.968		1.21	1.59	0.794
NCI-H1792							0.711	0.537	0.495	0.39	1.06	0.966	0.954	0.586	0.636	0.56	0.625	0.582
NCI-H1793	0.335	0.351	0.195	0.341	0.242	0.782	0.956	0.886	1.25	0.87				0.426	0.319	0.417	0.406	0.35
NCI-H2170	0.75	0.733	0.796	0.685	0.764						1.31	1.15	0.996	0.628	0.636	0.648	0.599	0.313
NCI-H2342	0.592	0.552	0.463	0.461	0.493													
SW 900	0.688	0.417	0.142	0.634	0.609													
